What all share (assay type): cell-based
Assay [1] concerns HT29. In words: MTS assay (cytotoxicity), growth inhibition of HT29. The following applies: Homo sapiens, HT-29, 120 h, Table 5, series III, 5 days, read-out: Growth Inhibition (IC50) HT29. Here is the method: (§1) Cells were seeded in 96-well plates at 2000 cells/well in a final culture volume of 100 ul for 24 hours before the addition of 25 ul of increasing concentrations of inhibitors that was incubated for 5 days. Viable cell number was determined using the CellTiter 96 AQueous One Solution Cell Proliferation Assay (Promega). Plates were read at 490 nm absorbance 2-4 hours after addition of the MTS reagent using a multiwell plate spectrophotometer. Background was determined by measuring the Abs 490 nm of cell culture medium and MTS in the absence of cells. The background value was subtracted from all values. Absorbance 490 nm values for each inhibitor were plotted against the log 10 inhibitor concentration, and IC50 values were calculated using a nonlinear least-square curve fitting program in Prism 5.

Assay [2] concerns MCF-7. Briefly: MTS assay (cytotoxicity), growth inhibition of MCF-7. Particulars: Homo sapiens, MCF7, 120 h, Table 5, series III, 5 days, read-out: Growth Inhibition (IC50) MCF-7. The method, then:
as §1

The test system of assay [3] is SKBR-3. Briefly: MTS assay (cytotoxicity), growth inhibition of SKBR-3. Particulars: Homo sapiens, SK-BR-3, 120 h, Table 5, series III, 5 days, read-out: Growth Inhibition (IC50) SKBR-3. The method, then: as §1
Assay [4] concerns HSP90 client protein Her2 in SKBR-3 cells. Briefly: Her-2 degradation assay (Her-2 ELISA) in SKBr-3 cells. The following applies: Homo sapiens. The method, then:
Most of the compounds synthesized were evaluated for their ability to induce degradation of the HSP90 client protein Her2 in SKBR-3 cells. Selected compounds were evaluated in a fluorescence polarization (FP) assay for their affinity to HSP90.
SKBr-3 cells grown in McCoy's 5a Medium supplemented with 10% fetal bovine serum (FBS) were plated into 12-well plates at 50% confluency. Increasing concentrations of inhibitors were added 24 hours later (cells are 65-70% confluent) and incubated overnight for 18 hours. The wells were washed with 2 ml of phosphate buffered saline (PBS), and 50 ul of trypsin was added to each well. After trypsinization was complete, 150 ul of FBS was added to each well. Then 200 ul of cells were transferred to 96-well plates and plates were centrifuged at 1200 rpm for 2 minutes using a tabletop centrifuge. The cells were washed once with 250 ul PBS before being lysed with 100 ul of 50 mM Tris (pH 7.4), 0.1% NP-40 lysis buffer. Protein concentrations of clarified lysates were determined using the BCA Assay (Calbiochem) according to the manufacturer's instructions. 2 ug of each lysate was analyzed in the human sp 185 Her-2 ELISA (Bender Medsystems) according to the manufacturer's instructions. ELISA plates were read at 450 nm using a multiwell plate spectrophotometer. Background was determined by measuring the Abs 450 nm of wells with no lysate added. The background value was subtracted from all values. Absorbance 450 nm values for each inhibitor were plotted against the log 10 inhibitor concentration, and IC50 values were calculated using a nonlinear least-square curve fitting program in Prism 5.

For assay [5], the system named is BT474. In words: MTS assay (cytotoxicity), growth inhibition of BT474. Particulars: Homo sapiens, BT-474, 120 h, Table 5, series III, 5 days, read-out: Growth Inhibition (IC50) BT474. Here is the method: as §1
Setting [6] is: SK-BR-3, Table 5, series III, 18 hours.

For the molecule `COc1c(C)cnc(CN2C(=O)/C(=C\c3cc4c([nH]3)CCC=C4Cl)c3c(Cl)nc(N)nc32)c1C` [III-7, 2-Amino-4-chloro-5-[1-(4-chloro-6,7-dihydro-1H-indol-2-yl)-meth-(Z)-ylidene]-7-(4-methoxy-3,5-dimethyl-pyridin-2-ylmethyl)-5,7-dihydro-pyrrolo[2,3-d]pyrimidin-6-one], the IC50 in assay [1] stood at 2010 nM; in assay [2], 5430 nM; in assay [3] it was 5750 nM; in assay [4] (setting [6]), 6570 nM; in assay [5], 4710 nM.

With `COc1c(C)cnc(CN2C(=O)/C(=C\c3cc(C(=O)CN4CCC(C(F)(F)F)CC4)c[nH]3)c3c(Cl)nc(N)nc32)c1C` [III-94], the IC50 in assay [1] was determined as 350 nM; in assay [2], 390 nM; in assay [3], 90 nM; in assay [4] (setting [6]) it was 80 nM; in assay [5], 790 nM.

With `CCN(CC)CC(=O)c1c[nH]c(/C=C2\C(=O)N(Cc3ncc(C)c(OC)c3C)c3nc(N)nc(Cl)c32)c1` [III-95, (Z)-2-Amino-4-chloro-5-((4-(2-(diethylamino)acetyl)-1H-pyrrol-2-yl)methylene)-7-((4-methoxy-3,5-dimethylpyridin-2-yl)methyl)-5H-pyrrolo[2,3-d]pyrimidin-6(7H)-one], the IC50 in assay [2] is 710 nM; in assay [3], 2 nM; in assay [4] (setting [6]), 10 nM; in assay [5] it was 20 nM.

Take `COc1c(C)cnc(CN2C(=O)/C(=C\c3[nH]c(C)c(C(=O)NCCN4CCC(O)CC4)c3C)c3c(Cl)nc(N)nc32)c1C` [III-107, (Z)-5-((2-Amino-4-chloro-7-((4-methoxy-3,5-dimethylpyridin-2-yl)methyl)-6-oxo-6,7-dihydro-5H-pyrrolo[2,3-d]pyrimidin-5-ylidene)methyl)-N-(2-(4-hydroxypiperidin-1-yl)ethyl)-2,4-dimethyl-1H-pyrrole-3-carboxamide]: the IC50 in assay [2] worked out at 230 nM; in assay [3], 5 nM; in assay [4] (setting [6]) it was 20 nM; in assay [5] it was 20 nM.

As to `COc1c(C)cnc(CN2C(=O)/C(=C\c3cc(C(=O)CN4CCOCC4)c[nH]3)c3c(Cl)nc(N)nc32)c1C` [III-93, (Z)-2-Amino-4-chloro-7-((4-methoxy-3,5-dimethylpyridin-2-yl)methyl)-5-((4-(2-morpholinoacetyl)-1H-pyrrol-2-yl)methylene)-5H-pyrrolo[2,3-d]pyrimidin-6(7H)-one], the IC50 in assay [2] was 130 nM; in assay [3] it was 10 nM; in assay [4] (setting [6]), 20 nM; in assay [5] it was 60 nM.

Take `COc1c(C)cnc(CN2C(=O)/C(=C\c3[nH]c(C)c(C(=O)NCCN4CCS(=O)(=O)CC4)c3C)c3c(Cl)nc(N)nc32)c1C` [III-106, 5-[2-Amino-4-chloro-7-(4-methoxy-3,5-dimethyl-pyridin-2-ylmethyl)-6-oxo-6,7-dihydro-pyrrolo[2,3-d]pyrimidin-(5Z)-ylidenemethyl]-2,4-dimethyl-1H-pyrrole-3-carboxylic acid [2-(1,1-dioxo-thiomorpholin-4-yl)-ethyl]-amide]: the IC50 in assay [2] turned out to be 240 nM; in assay [3] it was 40 nM; in assay [4] (setting [6]), 40 nM; in assay [5] it was 90 nM.

Take `CCN(CC)CCCNC(=O)c1c[nH]c(/C=C2\C(=O)N(Cc3ncc(C)c(OC)c3C)c3nc(N)nc(Cl)c32)c1` [III-29, (Z)-5-((2-Amino-4-chloro-7-((4-methoxy-3,5-dimethylpyridin-2-yl)methyl)-6-oxo-6,7-dihydro-5H-pyrrolo[2,3-d]pyrimidin-5-ylidene)methyl)-N-(3-(diethylamino)propyl)-1H-pyrrole-3-carboxamide]: the IC50 in assay [2] was found to be 410 nM; in assay [3] it was 20 nM; in assay [4] (setting [6]), 70 nM; in assay [5] it was 30 nM.

On to `CCN(CC)CCNC(=O)c1c[nH]c(/C=C2\C(=O)N(Cc3nc(C)c(C)s3)c3nc(N)nc(Cl)c32)c1` [III-69, (Z)-5-((2-Amino-4-chloro-7-((4,5-dimethylthiazol-2-yl)methyl)-6-oxo-6,7-dihydro-5H-pyrrolo[2,3-d]pyrimidin-5-ylidene)methyl)-N-(2-(diethylamino)ethyl)-1H-pyrrole-3-carboxamide], for which the IC50 was 770 nM in assay [2], 10 nM in assay [3], 10 nM in assay [4] (setting [6]) and 60 nM in assay [5].

Take `COc1cc(CN2CC(=O)N(CC(C)C)c3c(Cl)nc(N)nc32)c(Cl)c(OC)c1OC` [Example I-36]: in assay [4] (SK-BR-3, Table 3, 18 hours, means of three independent experiments), the IC50 is above 5000 nM.

Consider `COc1c(C)cnc(CN2C(=O)/C(=C\c3[nH]c(C)c(C(=O)NCCN4CCOCC4)c3C)c3c(Cl)nc(N)nc32)c1C` [III-103, (Z)-5-((2-Amino-4-chloro-7-((4-methoxy-3,5-dimethylpyridin-2-yl)methyl)-6-oxo-6,7-dihydro-5H-pyrrolo[2,3-d]pyrimidin-5-ylidene)methyl)-2,4-dimethyl-N-(2-morpholinoethyl)-1H-pyrrole-3-carboxamide], for which the IC50 in assay [2] worked out at 810 nM; in assay [3], 40 nM; in assay [4] (setting [6]) it was 70 nM; in assay [5], 110 nM.

As for `Cc1nc(CN2C(=O)/C(=C\c3cc(C(=O)NCCN4CCOCC4)c[nH]3)c3c(Cl)nc(N)nc32)sc1C` [III-70], the IC50 in assay [2] stood at 320 nM; in assay [3], 20 nM; in assay [4] (setting [6]) it was 40 nM; in assay [5], 80 nM.

Take `COc1c(C)cnc(CN2C(=O)/C(=C\c3[nH]c(C)c(C(=O)NCCN4CCCC4)c3C)c3c(Cl)nc(N)nc32)c1C` [III-104, (Z)-5-((2-Amino-4-chloro-7-((4-methoxy-3,5-dimethylpyridin-2-yl)methyl)-6-oxo-6,7-dihydro-5H-pyrrolo[2,3-d]pyrimidin-5-ylidene)methyl)-2,4-dimethyl-N-(2-(pyrrolidin-1-yl)ethyl)-1H-pyrrole-3-carboxamide]: the IC50 in assay [2] is 5880 nM; in assay [3], 10 nM; in assay [4] (setting [6]), 10 nM; in assay [5], 190 nM.

Turning to `COc1c(C)cnc(CN2C(=O)/C(=C\c3nc(NC(=O)C(C)C)c[nH]3)c3c(Cl)nc(N)nc32)c1C` [III-71, (Z)-N-(2-((2-Amino-4-chloro-7-((4-methoxy-3,5-dimethylpyridin-2-yl)methyl)-6-oxo-6,7-dihydro-5H-pyrrolo[2,3-d]pyrimidin-5-ylidene)methyl)-1H-imidazol-4-yl)isobutyramide], the IC50 in assay [2] is 370 nM; in assay [3] it was 30 nM; in assay [4] (setting [6]) it was 50 nM; in assay [5] it was 80 nM.

As for `COc1c(C)cnc(CN2C(=O)/C(=C\c3cc(C(=O)NCCN4CCC(=O)CC4)c[nH]3)c3c(Cl)nc(N)nc32)c1C` [III-36, (Z)-5-((2-Amino-4-chloro-7-((4-methoxy-3,5-dimethylpyridin-2-yl)methyl)-6-oxo-6,7-dihydro-5H-pyrrolo[2,3-d]pyrimidin-5-ylidene)methyl)-N-(2-(4-oxopiperidin-1-yl)ethyl)-1H-pyrrole-3-carboxamide], the IC50 in assay [2] was 410 nM; in assay [3] it was 0.9 nM; in assay [4] (setting [6]), 8 nM; in assay [5], 3 nM.

Consider `COc1c(C)cnc(CN2C(=O)/C(=C\c3[nH]c(C)c(C(=O)NCCN4CCCCC4)c3C)c3c(Cl)nc(N)nc32)c1C` [III-105, (Z)-5-((2-Amino-4-chloro-7-((4-methoxy-3,5-dimethylpyridin-2-yl)methyl)-6-oxo-6,7-dihydro-5H-pyrrolo[2,3-d]pyrimidin-5-ylidene)methyl)-2,4-dimethyl-N-(2-(piperidin-1-yl)ethyl)-1H-pyrrole-3-carboxamide], for which the IC50 in assay [2] is above 1000 nM; in assay [3], 100 nM; in assay [4] (setting [6]), 70 nM; in assay [5] it was 1280 nM.

Turning to `CCN(CC)CCCc1ccc(/C=C2\C(=O)N(Cc3ncc(C)c(OC)c3C)c3nc(N)nc(Cl)c32)[nH]1` [III-86], the IC50 in assay [2] is 1370 nM; in assay [3], 1130 nM; in assay [4] (setting [6]), 310 nM; in assay [5], 760 nM.

For the origin of these results see US20110124634A1, “BIOACTIVE COMPOUNDS FOR TREATMENT OF CANCER AND NEURODEGENERATIVE DISEASES” (PONIARD PHARMACEUTICALS, INC., priority 2008, published 2011).
